Key:
[1] = test system: thrombin-induced platelet aggregation; test: Platelet aggregation induced by thrombin (turbidimetric, washed platelet suspension); format: cell-based, rabbit; settings: for IC50: rabbit platelets incubated with test compound at 37° C. for 1 min, then thrombin (0.1 unit/mL); for inhibition of thrombin-induced platelet aggregation (in words): discussion of Table 1
Procedure: (§1) Collagen (type 1, bovine Achilles tendon), obtained from Sigma Chemical Co., was homogenized in […] HOAc and stored at −70° C. Arachidonic acid, bovine serum albumin (BSA), EDTA (disodium salt), sodium citrate, dimethyl sulfoxide (DMSO), and platelet activating factor (PAF) were purchased from Sigma Chemical Co. Thrombin (bovine) was obtained from Parke-Davis Co. and dissolved in 50% (viv) glycerol to give a stock solution of 100 NIH units/mL.
(§2) Blood was collected from the rabbit marginal ear vein and was mixed with EDTA to a final concentration of 6 mM. It was centrifuged at 90 g for 10 min at room temperature, and the supernatant was obtained as platelet-rich plasma. The latter was further centrifuged at 500 g for 10 min. The platelet pellets were washed with Tyrode's solution without EDTA. After centrifugation at the same conditions, the platelet pellets were finally suspended in Tyrode's solution of the following composition (mM): NaCl (136.8), KCl (2.81, NaHCO3 (11.9), MgCl2 (1.1), NaH2PO4 (0.33), CaCl2 (1.0), and glucose (11.2). Platelet numbers were counted by Coulter Counter (Model ZM) and adjusted to 4.5×10^8 […].
(§3) Aggregation was measured by the turbidmetric method with a dual-channel Lumiaggregometer (Model 1020, Payton, Canada). All glassware was siliconized. One minute before the addition of the aggregation inducer, the platelet suspension was stirred at 900 rpm. The percentage of aggregation was calculated as described previously.

[2] = test system: AA-induced platelet aggregation; test: Platelet aggregation induced by AA (turbidimetric, washed platelet suspension); format: cell-based, rabbit; settings: for IC50: rabbit platelets incubated with test compound at 37° C. for 1 min, then AA (100 μM); for inhibition of AA-induced platelet aggregation (in words): discussion of Table 1
Procedure: as §1, §2, §3

[3] = test system: collagen-induced platelet aggregation; test: Platelet aggregation induced by collagen (turbidimetric, washed platelet suspension); format: cell-based, rabbit; settings: for IC50: rabbit platelets incubated with test compound at 37° C. for 1 min, then collagen (10 μg/mL); for inhibition of collagen-induced platelet aggregation (in words): discussion of Table 1
Procedure: as §1, §2, §3

[4] = test system: PAF-induced platelet aggregation; test: Platelet aggregation induced by PAF (turbidimetric, washed platelet suspension); format: cell-based, rabbit; settings: for IC50: rabbit platelets incubated with test compound at 37° C. for 1 min, then PAF (2 ng/mL); for inhibition of PAF-induced platelet aggregation (in words): discussion of Table 1
Procedure: as §1, §2, §3

platelet aggregation = test: Antiplatelet aggregation activity, overall statements over the four inducers; format: cell-based, rabbit; settings: discussion of Table 1, all inducers
Procedure: as §1, §2, §3

[5] = Oryctolagus cuniculus, Platelet, 1 min

Compound	IC50 [1] [µM]	IC50 [2] [µM]	IC50 [3] [µM]	IC50 [4] [µM]	IC50 [1, 5] [µM]	IC50 [2, 5] [µM]	IC50 [3, 5] [µM]	IC50 [4, 5] [µM]	melting point [°C]	anti-platelet activity overall (in words) (platelet aggregation)	inhibition of collagen-induced platelet aggregation (in words) [3]	inhibition of PAF-induced platelet aggregation (in words) [4]	inhibition of thrombin-induced platelet aggregation (in words) [1]	inhibition of AA-induced platelet aggregation (in words) [2]
OCc1ccc(-c2cn(Cc3ccccc3)c3ccccc23)o1 [Compound 7, N-Benzyl-3-(5′-hydroxymethyl-2′-furyl)indole]	> 300	> 300	> 300	> 300	–	–	–	–	–	nearly no anti-platelet activity	–	–	–	–
OCc1ccc(-c2cn(Cc3ccccc3)c3ccccc23)s1 [Compound 8, N-Benzyl-3-(5′-hydroxymethyl-2′-thienyl)indole]	> 300	> 300	> 300	> 300	–	–	–	–	–	did not improve its activity	–	–	–	–
COc1cccc(C(=O)n2cc(-c3ccc(CO)o3)c3ccccc32)c1 [Compound 33, N-(3′-Methoxybenzoyl)-3-(5′-hydroxymethyl-2′-furyl)indole]	175	90.9	83.9	169	–	–	–	–	–	comparable with YC-1	significant inhibition	significant inhibition	significant inhibition	significant inhibition
COc1ccc(C(=O)n2cc(-c3ccc(CO)o3)c3ccccc32)cc1 [Compound 34, N-(4′-Methoxybenzoyl)-3-(5′-hydroxymethyl-2′-furyl)indole]	> 300	2.9	30.9	270	–	–	–	–	–	–	potent inhibition	poor inhibition	poor inhibition	potent inhibition

Continued, in another order:

IC50 [1] [µM]	IC50 [2] [µM]	IC50 [3] [µM]	IC50 [4] [µM]	IC50 [1, 5] [µM]	IC50 [2, 5] [µM]	IC50 [3, 5] [µM]	IC50 [4, 5] [µM]	melting point [°C]	Compound	anti-platelet activity overall (in words) (platelet aggregation)	inhibition of collagen-induced platelet aggregation (in words) [3]	inhibition of PAF-induced platelet aggregation (in words) [4]	inhibition of thrombin-induced platelet aggregation (in words) [1]	inhibition of AA-induced platelet aggregation (in words) [2]
–	–	–	–	> 300	> 300	168	170	122	OCc1ccc(-c2cn(Cc3ccccc3)c3ccccc23)cc1 [Compound 10, N-Benzyl-3-(4-hydroxymethylphenyl)indole]	–	inhibited	inhibited	–	–
173	94.9	73.7	164	–	–	–	–	–	O=S(=O)(c1ccccc1)n1cc(-c2ccc(CO)o2)c2ccccc21 [Compound 16, N-Benzenesulfonyl-3-(5′-hydroxymethyl-2′-furyl)indole]	–	significant inhibition	significant inhibition	significant inhibition	significant inhibition
> 300	154	131	171	–	–	–	–	–	O=S(=O)(c1ccccc1)n1cc(-c2ccc(CO)s2)c2ccccc21 [Compound 17, N-Benzenesulfonyl-3-(5′-hydroxymethyl-2′-thienyl)indole]	–	excellent inhibitory activity	excellent inhibitory activity	impaired its inhibitory activity	excellent inhibitory activity
> 300	38.2	51.1	> 300	–	–	–	–	–	O=C(c1ccccc1)n1cc(-c2ccc(CO)o2)c2ccccc21 [Compound 32, N-Benzoyl-3-(5′-hydroxymethyl-2′-furyl)indole]	–	excellent inhibitory activity	inefficient	inefficient	excellent inhibitory activity
–	–	–	–	180	57	54.6	90	–	OCc1ccc(-c2nn(Cc3ccccc3)c3ccccc23)o1 [YC-1, 1-benzyl-3-(5′-hydroxymethyl-2′-furyl)indazole]	–	–	–	–	–
–	–	–	–	193	101	123	143	–	OCc1ccc(-c2nn(Cc3ccccc3)c3ccccc23)cc1 [YD-1, 1-benzyl-3-(4-hydroxymethylphenyl)indazole, reference compound]	–	–	–	–	–
